Holding throughout (assay type): cell-based, human
Assay [1] deals with SS-RBCs. As to the kind of experiment: Heme-induced complement (iC3b, C5b-9) deposition on SS-RBCs, flow cytometry. The settings on record: for Q2 % Parent iC3b+ / Q2 % Parent C5b-9+: 20% autologous serum, heme 400 μM, 20-30 min 37° C.; for Q2 % Parent iC3b+: Table 3, FIG. 2A; for Q2 % Parent C5b-9+: Table 3, FIG. 2B; for effect on heme-induced C3 deposition (opsonization) on SS-RBCs / effect on heme-induced C5b-9 (MAC) deposition on SS-RBCs: heme and autologous serum; for effect on heme-induced C3 deposition (opsonization) on SS-RBCs: FIG. 2A; for effect on heme-induced C5b-9 (MAC) deposition on SS-RBCs: FIG. 2B. From the text: (§1) RBCs and serum from SCD patients homozygous for the mutation in the hemoglobin gene (SS) were obtained from BioIVT (cat HUMANRBCALSUZN and HMRBC-SCA respectively) and from Sanguine Biosciences (Study #24348). Gelatin Veronal Buffer (GVB) was obtained from Boston Bioproducts (cat. IBB-300X). Mg-EGTA (cat. B106), C8 depleted normal human serum (cat. A325) and normal human serum (cat. NHS) were obtained from Complement Technology. PBS was obtained from Corning, cat. 21-031-CV. Porcine heme (Sigma, cat. 51280) was used at various concentrations (50-800 uM) to amplify complement activation and induce deposition on human cells.
(§2) All centrifugations were performed at 440×g for 5 min at 4° C. and supernatants aspirated with multi-channel pipets to avoid disturbing the loose RBC pellets.
Patient SS-RBCs were washed two or three times in PBS. To induce complement deposition, RBCs were resuspended in GVB, 5 mM Mg-EGTA (assay buffer) at 5×10^7 cells/mL and 30 μL added to sterile V-96 wells. Autologous serum was added to 20% final concentration. Complement inhibitors were diluted in assay buffer at 5× working stock of 3.125 μM and 10 μL added to wells containing cells. Porcine heme was added to 400 μM and the cells incubated for 20-30 minutes at 37° C., 5% CO2. Complement activation was stopped by the addition of 150 μL/well PBS containing 10 mM EDTA. Cells were centrifuged and washed once with 200 μL PBS and stained for iC3b and C5b-9 deposition below.
Flow cytometric Analysis of iC3b and C5b-9 Deposition on the Surface of SS-RBCs
(§3) Cells were resuspended in 50 μL per well iC3b (Quidel, cat. A209) or C5b-9 antibody (Quidel, cat. A239) diluted to 4 μg/mL in PBS and incubated for 20-30 min at 4° C. (in some cases, staining for flow cytometry was performed in sheath fluid). Cells were washed twice with 150-200 μL PBS, resuspended in 50 μL goat anti-mouse IgG (H+L)-AF488 (Invitrogen cat. A11029) diluted to 4 μg/mL in PBS and incubated for 20-30 min at 4° C. In some experiments, goat anti-mouse IgG2b AF488 was used at 4 μg/mL (Invitrogen, cat. A21141). Cells were washed twice with 150-200 μL PBS and acquired on the LSR Fortessa for flow cytometric analysis.
(In general: A flow cytometer gives signals particle by particle.)

The test system of another assay is HMEC-1 cells. The assay is described as follows: Heme-induced complement (iC3b, C5b-9) deposition on HMEC-1 cells, flow cytometry. The settings on record: for Q2 % Parent iC3b+ / Q2 % Parent C5b-9+: HMEC-1, 20% normal human serum, 1 uM inhibitor, heme 400 μM, 20-30 min 37° C.; for Q2 % Parent iC3b+: Table 4, FIG. 4A; for Q2 % Parent C5b-9+: Table 4, FIG. 4B; for effect on heme-induced C3 deposition on endothelial cells / effect on heme-induced C5b-9 (MAC, TCC) deposition on endothelial cells: HMEC-1, heme and NHS; for effect on heme-induced C3 deposition on endothelial cells: FIG. 4A; for effect on heme-induced C5b-9 (MAC, TCC) deposition on endothelial cells: FIG. 4B. On the procedure: The endothelial cell line HMEC-1 was purchased from ATCC (CRL 3243) and expanded and banked at AcCellerate (Cat. CBA02, lot 92-190318FG01). This is a dermal microvascular endothelial cell line. Cells were used in experiments at passage <5.
All centrifugation steps were performed for 5-7 min at 200-300 g at room temperature (RT). HMEC-1 cells were seeded into 6 well plates at 1.5×10^5 cells per well in medium (Endothelial cell growth medium MV2, Promocell, cat. 22022) and allowed to reach confluency (72 hrs). Normal human serum (Complement Technologies, cat. NHS) was spiked with 1 uM inhibitor, diluted to 20% using Live cell imaging solution (LCIS) (Invitrogen, cat A1429DJ) containing 5-10 mM MgEGTA and added to HMEC-1 cultures in place of the medium. Heme was added to 400 μM, mixed and incubated for 20-30 min at 37° C. Cells were rinsed twice with 2 mLs PBS (Corning, cat. 21-031-CV) and detached with PBS containing 10 mM EDTA (Corning, cat. 46-034-CI). Cells were centrifuged, pellets resuspended in 400 μL sheath fluid (BD Biosciences, cat. 342003) and transferred to V-bottom 96 well plates in duplicate. After centrifugation, pellets were resuspended in 50 μL per well sheath fluid containing either iC3b or C5b-9 antibody diluted to 4 μg/mL. Following several washes, the cells were incubated with 50 μL of goat anti mouse IgG (H+L) AF 488 diluted to 4 μg/mL in sheath fluid for 30 min at 4° C. Following several washes, cells were acquired on the LSR Fortessa for flow cytometry analysis.

The next assay concerns monocytes in whole blood. The assay is described as follows: Heme-induced tissue factor expression on monocytes in whole blood, flow cytometry. The settings on record: hirudin whole blood; for Q2 % Parent TF+: CD14 monocytes, inhibitor 1 μM, heme 100 μM, 4 hrs 37° C., Table 5. On the procedure: Human whole blood was obtained internally from healthy donors according to Institutional Review Board protocol. Blood was drawn into custom hirudin blood draw tubes obtained from Haematologic Technologies (cat. SCAT-296-5/5, 500 ATU/mL). This anti-coagulant allows simultaneous activation of complement and coagulation (through but not beyond thrombin). Blood was aliquoted into facs tubes (0.2 mL per tube) and inhibitors added to 1 μM. Heme was added to 100 μM and the samples were incubated for 4 hrs at 37° C., 5% CO2, mixing approximately every 30 minutes. To stain for flow cytometry, 10 μL of TruStain FcX (Biolegend, cat. 422302) was added for a 5-10 minute incubation at RT (to block IgG receptors). Mouse anti-human CD14 PerCP Cy5.5 (BD Biosciences, cat. 550787) (5 μL per sample) and mouse anti-human tissue factor-PE (BD Biosciences, cat. 550312) were added (20 μL per sample) and the samples were mixed and incubated for 30 minutes at RT. To lyse RBCs, 3 mLs of 1× lysis buffer (BD Biosciences Cat. 555899) was added to each tube followed by vortexing and incubation for 20 min at RT. The samples were centrifuges at 340 g for 5 minutes and washed twice with PBS. Cell pellets were resuspended in 0.5 mL PBS and acquired on the LSR Fortessa for flow cytometric analysis. Monocytes were gated via CD14 triggering and data was expressed as percentage of CD14 monocytes positive for tissue factor (TF).

For assay [2], the system named is SS-RBCs. As to the kind of experiment: Heme dose-dependent induction of iC3b deposition on SS-RBCs.
Excerpt: as §1, §2
Patient SS-RBCs were washed three times in PBS, resuspended in GVB, 5 mM Mg-EGTA and re-distributed to sterile V-bottom 96 well plates at a concentration of 2×10^6 cells/well. […] Heme was used at 0, 100, 200, 400, and 800 μM. Following incubation for 20-30 minutes at 37° C. 5% CO2, PBS containing 10% EDTA (Corning, cat. 46-030-CI) was added to stop complement activation. RBCs were washed and stained with antibody to iC3b as detailed below.
as §3

For another assay, the system named is whole blood. As to the kind of experiment: IL-8 production in whole blood model of thromboinflammation. The settings on record: heme, FIG. 6.

The values below come from patent US20240353394A1, “ASSAY METHODS FOR SCREENING INHIBITORS OF SICKLE CELL DISEASE, ß-THALASSEMIA, OR SICKLE CELL ß-THALASSEMIA, OR A PHENOTYPE THEREOF” (Alexion Pharmaceuticals, Inc., priority 2021, published 2024).

As for `CC(=O)c1nn(CC(=O)N2[C@H](C(=O)Nc3nc(Br)ccc3C)C[C@@]3(C)C[C@@H]23)c2ccc(-c3cnc(C)nc3)cc12` [ALXN2050, vermincopan], in the assay with SS-RBCs [1], the “Q2 % Parent iC3b+” value was 3.5% and the “Q2 % Parent C5b-9+” value is reported as 3.4%. For the same molecule, in the assay on HMEC-1 cells, the “Q2 % Parent iC3b+” value is 3.4%; the “Q2 % Parent C5b-9+” value is 3%; the “effect on heme-induced C3 deposition on endothelial cells” value was “block”; the “effect on heme-induced C5b-9 (MAC, TCC) deposition on endothelial cells” value is recorded as “block”. Besides, in the assay on monocytes in whole blood, the “Q2 % Parent TF+” value was 1.4%.

As to `C=CC1=C(C)c2cc3[n-]c(cc4[n-]c(cc5nc(cc1n2)C(C)=C5C=C)c(C)c4CCC(=O)O)c(CCC(=O)O)c3C.[Fe+2]` [heme], the “Q2 % Parent iC3b+” value in the assay on SS-RBCs [2] (100 uM heme, 20% SS-Serum) came to 18.3%; in the assay with SS-RBCs [2] (100 uM heme, No Serum), 2%; with SS-RBCs [2] (200 uM Heme, 20% SS-Serum) it was 22.8%; in the assay with SS-RBCs [2] (200 uM Heme, No Serum), 1.3%; in the assay on SS-RBCs [2] (400 uM heme, 20% SS-Serum) it was 49.6%; with SS-RBCs [2] (400 uM heme, No Serum), 1.1%. The “Q2 % Parent iC3b+” value in the assay on SS-RBCs [2] (800 uM heme, 20% SS-Serum) came to 69.7%; in the assay on SS-RBCs [2] (800 uM heme, No Serum) it was 0.8%. Further, in the assay with SS-RBCs [2] (heme 100-800 μM, 20% autologous serum, FIG. 3), the “induction of C3 deposition (opsonization) on SS-RBCs” value was “potent and dose dependent opsonization”.

B1: Crizanlizumab: antibody manufactured using the published sequence of Crizanlizumab, an anti-P-selectin antibody FDA approved for prevention of VOC in SCD (antibody, chains of the INN, looked up, V domains shown)
VH: QVQLVQSGAEVKKPGASVKVSCKVSGYTFTSYDINWVRQAPGKGLEWMGWIYPGDGSIKYNEKFKGRVTMTVDKSTDTAYMELSSLRSEDTAVYYCARRGEYGNYEGAMDYWGQGTLVTVSS
VL: DIQMTQSPSSLSASVGDRVTITCKASQSVDYDGHSYMNWYQQKPGKAPKLLIYAASNLESGVPSRFSGSGSGTDFTLTISSLQPEDFATYYCQQSDENPLTFGGGTKVEIK
Consider B1, for which, in the assay with SS-RBCs [1], the “Q2 % Parent iC3b+” value stood at 38.6%, the “Q2 % Parent C5b-9+” value was 7.3%, the “effect on heme-induced C3 deposition (opsonization) on SS-RBCs” value is recorded as “little to no effect” and the “effect on heme-induced C5b-9 (MAC) deposition on SS-RBCs” value was “little to no effect”. The “effect on heme-induced C3 deposition (opsonization) on SS-RBCs” value in the assay on SS-RBCs [1] (listed as anti-P-selectin antibody) is “no effect”. Further, in the assay with SS-RBCs [1] (listed as anti-P selectin antibody), the “effect on heme-induced C5b-9 (MAC) deposition on SS-RBCs” value is given as “no effect”. Also, in the assay with HMEC-1 cells, the “Q2 % Parent iC3b+” value turned out to be 82.9%; the “Q2 % Parent C5b-9+” value came out at 53.7%; the “effect on heme-induced C3 deposition on endothelial cells” value is “no effect”; the “effect on heme-induced C5b-9 (MAC, TCC) deposition on endothelial cells” value is “no effect”. In addition, the “Q2 % Parent TF+” value in the assay on monocytes in whole blood is on record as 23.2%. Further, in the assay on monocytes in whole blood (heme, FIG. 5A, FIG. 5B), the “effect on heme-induced TF upregulation by monocytes” value was “no effect”. In the assay on whole blood, the “effect on IL-8 production” value is listed as “no effect”.
